Reference: PubChem BioAssay (NCI)
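Assay format: 96-well plates, 48-hour exposure. At the GI50, growth is halved. TGI: concentration producing complete growth inhibition.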

Key:
Experiment in all cases: NCI tumour cell line growth inhibition, 48 h
HT29 colon = system: HT29 colon
OVCAR-8 ovarian = system: OVCAR-8 ovarian
SNB-75 CNS = system: SNB-75 CNS
HOP-62 NSCLC = system: HOP-62 NSCLC
A549 NSCLC = system: A549 NSCLC
KM12 colon = system: KM12 colon
HOP-92 NSCLC = system: HOP-92 NSCLC
T-47D breast = system: T-47D breast
SNB-19 CNS = system: SNB-19 CNS
CCRF-CEM leukemia = system: CCRF-CEM leukemia

Row | Structure (SMILES) | GI50 (HT29 colon) [µM] | TGI (HT29 colon) [µM] | GI50 (OVCAR-8 ovarian) [µM] | TGI (OVCAR-8 ovarian) [µM] | GI50 (SNB-75 CNS) [µM] | TGI (SNB-75 CNS) [µM] | GI50 (HOP-62 NSCLC) [µM] | TGI (HOP-62 NSCLC) [µM] | GI50 (A549 NSCLC) [µM] | TGI (A549 NSCLC) [µM] | GI50 (KM12 colon) [µM] | TGI (KM12 colon) [µM] | GI50 (HOP-92 NSCLC) [µM] | TGI (HOP-92 NSCLC) [µM] | GI50 (T-47D breast) [µM] | TGI (T-47D breast) [µM] | GI50 (SNB-19 CNS) [µM] | TGI (SNB-19 CNS) [µM] | GI50 (CCRF-CEM leukemia) [µM] | TGI (CCRF-CEM leukemia) [µM]
1 | CN1CCC(COc2cnc(-c3cccc(Cn4nc(-c5cccc(C#N)c5)ccc4=O)c3)nc2)CC1 | 2.04 | 4.66 | 3.27 | 12.8 | 1.81 | 5.28 | 4.24 | 14.2 | 3.52 | 14.7 | 4.36 | 16.5 | 1.02 | 12.6 | 2.27 | 5.99 | 4.45 | 25.7 | 2.56 | 19.6
2 | CSC1=Nc2c(c(C)c(-c3ccccc3)n2CCCN2CCCCC2)C2=NC(=O)C[C@H](C)N12 | 2.38 | 10.9 | 4.01 | > 55.7 | 4.98 | 32 | 3.11 | 15.8 | 3.57 | > 32.6 | 3.26 | 12.5 | 4.1 | 48.9 | 2.28 | 8.53 | 3.08 | > 94.6 | 2.68 | 10.2
3 | CCOC(=O)[C@@H](C)C[C@H](Cc1ccccc1)NC(=O)c1nc([C@@H](C[C@H](C(C)C)N(C)C(=O)[C@@H](NC(=O)[C@H]2CCCCN2C)C(C)C)OC(C)=O)sc1CCOCc1ccccc1 | 0.0375 | 1.4 | 0.216 | 2.08 | 0.0433 | 2.76 | 0.226 | 2.91 | 0.101 | 2.17 | 0.0442 | 1.48 | 0.109 | 2.34 | 0.0721 | > 11.1 | 0.0926 | 4.34 | 0.0795 | > 6.52
4 | Cc1ccc(Cl)cc1Nc1nc(C(F)(F)F)ccc1C(=O)N/N=C/c1cccnc1 | 5.73 | 20.7 | 3.05 | 15.1 | 4.93 | 19.5 | 4.28 | 18.5 | 3.32 | 12.4 | 3.19 | 11.8 | 1.55 | 7.37 | 3.16 | 20.8 | 3.37 | 14.4 | 4.14 | > 100
5 | CCCCCCCC/C=C/CCCCCCCC1=NC(C)(C)CN1CC(C)O (stereo not drawn) | 1.59 | 3.09 | 1.97 | 3.9 | 1.81 | 4.23 | 1.83 | 3.39 | 1.8 | 3.42 | 1.99 | 3.98 | 1.21 | 5.58 | 2.03 | 4.58 | 5.54 | 17.7 | 2.24 | 5.97
6 | O=C(/C=C/c1ccco1)c1cc(F)c(Cl)cc1Cl | 24.3 | 52.1 | 24.5 | 68.3 | 22.3 | 44.2 | 19.2 | 39.1 | 22 | 70.7 | 19.7 | 56.4 | 18.1 | 39.6 | 18.1 | 56.8 | 20 | 48.4 | 18.8 | 47.5
7 | C=C(C)[C@@H]1CC[C@]2(COCCC#N)CC[C@]3(C)[C@H](CC[C@@H]4[C@@](C)(CCCNCCC#N)[C@H](C(=C)C)CC[C@]43C)[C@@H]12 | 7.88 | 19.8 | 12.1 | 31.8 | > 50 | > 50 | 49.7 | > 50 | 34.4 | > 50 | 15.6 | > 50 | 7.03 | 28.5 | 8.71 | > 50 | 26.4 | > 50 | 10.8 | 38.5
8 | Cc1cc(Nc2ccc(OCc3ccccc3)cc2)nc2cc(O)ccc12 | 3.86 | 14.9 | 12.4 | 29.5 | 2.4 | 11.2 | 11.7 | 26.5 | 5.23 | 20.4 | 3.1 | 13.3 | 2.01 | 6.26 | 5.93 | 23.2 | 9.57 | 23.2 | 3.01 | 20.7
9 | COC1=CC(c2ccc[nH]2)=N/C1=C\c1[nH]c(C)c(CC(=O)OCc2ccccc2)c1CCC(=O)OCc1ccccc1 | 0.287 | 2.5 | 0.32 | 1.36 | 0.275 | 1.53 | 0.365 | 2.39 | 0.427 | 10.9 | 0.367 | 2.26 | 0.231 | 0.809 | 0.256 | 0.922 | 1.72 | > 100 | 0.229 | 2.29
10 | O=C1c2[nH]cc(CNC3CN4CCC3CC4)c2C(=O)c2c1c(O)c1ccccc1c2O (stereo not drawn) | 12.5 | 38.3 | 17.6 | > 100 | 16.2 | 44.6 | 1.11 | 2.43 | 6.31 | 47.4 | 0.672 | 2.32 | 1.1 |  | 19 | 39.2 | 2.92 | 12.4 | 0.141 | 1.56
11 | Cc1cccc(-c2[nH]ncc2-c2ccc3ncccc3n2)n1 | 12.1 | > 25 | 8.54 | > 25 | 5.74 | > 23.9 | 9.59 | > 25 | 9.27 | > 25 | 9.51 | > 25 | 10 | > 25 | 7.07 | > 23.9 | 13.2 | > 25 | 12.4 | > 25
12 | CC12OOC(c3ccccc31)c1c2ccc2ccccc12 (stereo not drawn) |  | 6.02 |  | 20.9 |  | 22.5 |  | 30.2 |  | 8.43 |  | 7.43 |  | 9.94 |  | 3.84 |  | 30.5 |  | 2.8
13 | OC(c1cc(-c2cccc(Cl)c2)nc2ccccc12)C1CCCCN1 (stereo not drawn) | 1.7 | 3.42 | 1.79 | 3.42 | 1.38 | 3.23 | 1.78 | 3.32 | 1.7 | 3.1 | 1.79 | 3.2 | 1.12 | 2.51 | 2.09 | 3.93 | 1.95 | 3.95 | 2.08 | 4.74
14 | COc1ccc(N=Cc2c(O)ccc3c2oc2cc(Cl)c(O)c(Cl)c23)cc1 | 16.2 | 37.8 | 15 | 45.9 | 12.7 | 48.8 | 14.3 | 33.5 | 14.5 | 48.2 | 7.91 | 21.3 | 6.09 | 32.6 | 7.65 | 46.4 | 13.9 | 79.8 | 4.5 | 31.8
15 | COC1C(CO)OC(n2c3ccccc3c3c4c(c5c6ccccc6[nH]c5c32)C(=O)NC4=O)C(O)C1O (stereo not drawn) | 0.23 | > 37.7 | 0.0327 | 1.48 | 0.158 | 3.85 | 0.0514 | 1.2 | 0.621 |  | 0.0176 | 0.55 | 0.0792 | 1.22 | < 0.0126 | 0.117 | 0.0277 | 6.64 | < 0.01 | 2.42
16 | COC(=O)[C@@H](C)C[C@H](Cc1cn(C)c2ccccc12)NC(=O)c1csc([C@@H](C[C@H](C(C)C)N(C)C(=O)[C@@H](NC(=O)[C@H]2CCCCN2C)C(C)C)OC(C)=O)n1 | 0.00632 | > 6.31 | 0.0302 | > 16.7 | 0.00887 | > 14 | 0.0133 | > 16.7 | 0.0338 | > 16.7 | 0.0108 | > 16.7 | 0.0163 | 4.02 | > 16.7 | > 16.7 | 0.00883 | > 16.7 | 0.00779 | > 16.7
17 | CCOC(=O)c1ccccc1OC(=O)NNc1ccccc1 | > 100 | > 100 | 9.19 | > 100 | > 60.4 | > 100 | > 84.2 | > 100 | 0.874 | > 100 | 0.173 | > 56.4 | 6.92 | > 100 | 0.892 | > 100 | > 51.6 | > 100 | 1.8 | > 100
18 | CCN(CC)CCNc1ccc(C)c2sc3cc(Cl)ccc3c(=O)c12 | 1.94 | 3.48 | 1.9 | 3.49 | 1.71 | 4.98 | 1.44 | 2.9 | 1.76 | 3.28 | 1.75 | 3.26 | 0.665 | 2.24 | 1.65 | 4.02 | 1.74 | 3.51 | 1.44 | 3.36
